Like-named read-outs stand apart in the source and are kept apart here.
How the values were obtained:
RORγ = RORγ (Homo sapiens, UniProt P51449); assay: RORγ Gal4 Reporter Gene Assay; type: cell-based
Procedure: Determination of a ligand mediated Gal4 promoter driven transactivation to quantify ligand binding to RORγ was performed as follows: DNA encoding three different RORγ protein fragments was cloned into vector pCMV-BD (Stratagene). Expression was under control of a CMV promoter and as fusion to the DNA-binding domain of the yeast protein GAL4. Other vectors used were pFR-Luc (Stratagene) as regulated reporter plasmid. pFR-Luc contains a synthetic promoter with five tandem repeats of the yeast GAL4 binding sites that control expression of the Photinus pyralis (American firefly) luciferase gene. In order to improve experimental accuracy the plasmid pRL-CMV was cotransfected. pRL-CMV contains the constitutive CMV promoter, controlling the expression of the Renilla reniformis luciferase.
The medium is supplemented with 10% fetal bovine serum, 0.1 mM nonessential amino acids, 1 mM sodium pyruvate, 1% Glutamax and 100 units Penicilin/[…] per mL at 37° C. in 5% CO2.
For the assay, […] were plated per well in 96 well plates in 100 μL per well, incubated over night at 37° C. in 5% CO2. […] About 4 h after addition of the transfection solution, fresh Minimal Essential Medium (MEM, same composition as used for plating cells, but without serum) was added. Then compound stocks, prediluted in MEM (same composition as used for plating cells) were added (final vehicle concentration not exceeding 0.1%).
All experiments were done at least in triplicates.

[1] = target: RORγ ligand binding domain (LBD) (Homo sapiens (Human), UniProt P51449); assay: TR-FRET Activity Assay (ligand sensing assay, LANCE); conditions: for pIC50 (FRET): TR-FRET, interaction of RORγ-LBD with coactivator peptide
From the text: The ligand-binding domain (LBD) of RORγ was expressed as fusion protein with GST in BL-21 (BL3) cells using the vector pDEST15. Cells were lysed by lysozyme-treatment and sonication, and the fusion proteins purified over glutathione sepharose (Pharmacia) according to the manufacturers instructions. For screening of compounds for their influence on the RORγ-peptide interaction, the LANCE technology (Perkin Elmer) was applied. This method relies on the binding dependent energy transfer from a donor to an acceptor fluorophor attached to the binding partner of interest. For ease of handling and reduction of background from compound fluorescence LANCE technology makes use of generic fluorophore labels and time resolved detection assays were done in a final volume of 25 μL in a 384 well plate, in a Tris-based buffer system (20 mM Tris-HCl pH 6.8; 60 mM KCl, 1 mM DTT; 5 mM MgCl2; 35 ng/μL BSA), containing 20-60 ng/well recombinantly expressed RORγ-LBD fused to GST, 200-600 nM N-terminally biotinylated peptide, 200 ng/well Streptavidin-xlAPC conjugate (Prozyme) and 6-10 ng/well Eu W1024-antiGST (Perkin Elmer). DMSO content of the samples was kept at 1%.
After generation of the Tris-based buffer system, the potentially RORγ modulating ligands were diluted. […] The LANCE signal was detected by a Perkin Elmer EnVision™ Multilabel Counter. […] Ligands that promote the complex formation induce a concentration-dependent increase in time-resolved fluorescent signal.
Y is the response. Y starts at Bottom and goes to Top with a sigmoidal shape.
This is identical to the “four parameter logistic equation”. The IC50 values are calculated using this equation.

[2] = firefly (FF) luciferase, 293T cells, read-out: pIC50 (FF) (converted)
[3] = renilla normalised (RENnorm) luciferase, 293T cells, read-out: pIC50 (REN) (converted)

RORγ, sequence (P51449 whole entry, looked up, the tested form may be a part): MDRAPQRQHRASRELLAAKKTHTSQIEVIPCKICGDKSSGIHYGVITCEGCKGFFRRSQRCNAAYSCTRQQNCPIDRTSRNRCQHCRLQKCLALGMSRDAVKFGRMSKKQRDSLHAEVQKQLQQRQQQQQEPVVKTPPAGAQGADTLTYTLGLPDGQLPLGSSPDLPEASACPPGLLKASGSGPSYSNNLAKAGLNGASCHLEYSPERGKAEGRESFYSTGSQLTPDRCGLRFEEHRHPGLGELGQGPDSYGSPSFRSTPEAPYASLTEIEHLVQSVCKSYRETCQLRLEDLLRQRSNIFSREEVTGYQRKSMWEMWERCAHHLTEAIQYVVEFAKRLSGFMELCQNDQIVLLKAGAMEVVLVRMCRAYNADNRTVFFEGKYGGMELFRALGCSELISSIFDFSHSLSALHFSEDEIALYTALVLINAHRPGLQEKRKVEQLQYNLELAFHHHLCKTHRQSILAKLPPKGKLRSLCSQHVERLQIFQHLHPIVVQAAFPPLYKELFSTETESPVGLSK
RORγ ligand binding domain (LBD), sequence (P51449 269-508): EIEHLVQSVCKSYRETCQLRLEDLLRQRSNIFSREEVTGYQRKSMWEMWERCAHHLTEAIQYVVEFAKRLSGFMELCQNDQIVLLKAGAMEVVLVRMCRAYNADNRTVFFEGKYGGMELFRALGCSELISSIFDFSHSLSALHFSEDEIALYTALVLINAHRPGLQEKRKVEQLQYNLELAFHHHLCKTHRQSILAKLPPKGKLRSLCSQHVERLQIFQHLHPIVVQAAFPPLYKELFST

Row | Structure (SMILES) | pIC50 (FF) (RORγ) | pIC50 (REN) (RORγ) | pIC50 (FRET) [1] | IC50 (RORγ; [2]) [nM] | IC50 (RORγ; [3]) [nM] | IC50 [1] [nM] | pIC50 (FF) (RORγ; firefly (FF) luciferase, 293T cells) | pIC50 (REN) (RORγ; renilla normalised (RENnorm) luciferase, 293T cells)
1 | CC(C)(C)NS(=O)(=O)c1ccc(-c2oc(C(=O)N3CC4(CCOCC4)C3)nc2CC2CCCCC2)c2ccccc12 [100/10] | 6.4/7.2/7.4 | 6.4/7.2/7.4 | 6.4/7.2/7.4 |  |  |  |  | 
2 | CC(C)(C)NS(=O)(=O)c1ccc(-c2oc(C(=O)NC34CCC(C(=O)O)(CC3)CC4)nc2CC2CCCCC2)c2ccccc12 [100/14] | 5.8/7.9/7.9 | 5.8/7.9/7.9 | 5.8/7.9/7.9 |  |  |  |  | 
3 | CC(C)(C)NS(=O)(=O)c1ccc(-c2sc(C(=O)N[C@H]3C[C@H](C(=O)O)C3)nc2CC2CCCCC2)c(C(F)F)c1Cl [7/16] | 6.5/8.5/8.5 | 6.5/8.5/8.5 | 6.5/8.5/8.5 |  |  |  |  | 
4 | CC(C)(C)NS(=O)(=O)c1ccc(-c2sc(C(=O)N[C@H]3C[C@H](S(C)(=O)=O)C3)nc2CC2CCCCC2)c(Cl)c1Cl [6/41] | 7.3/8.0/8.2 | 7.3/8.0/8.2 | 7.3/8.0/8.2 |  |  |  |  | 
5 | CC(C)(C)NS(=O)(=O)c1ccc(-c2sc(C(=O)NC3COC3)nc2CC2CCCCC2)c(Cl)c1Cl [6/34] | 7.2/8.5/8.5 | 7.2/8.5/8.5 | 7.2/8.5/8.5 |  |  |  |  | 
6 | CC(C)(C)c1cc(-c2oc(C(N)=O)nc2CC2CCCCC2)cc(C(C)(C)C)c1 [Example 100, 4-(Cyclohexylmethyl)-5-(3,5-di-tert-butylphenyl)oxazole-2-carboxamide] | 6.6/5.8/5.8 | 6.6/5.8/5.8 | 6.6/5.8/5.8 |  |  |  |  | 
7 | CN1CCN(C(=O)c2nc(CC3CCCCC3)c(-c3ccc(S(=O)(=O)NC(C)(C)C)c4ccccc34)s2)CC1 [6/53] | 6.6/7.1/7.4 | 6.6/7.1/7.4 | 6.6/7.1/7.4 |  |  |  |  | 
8 | CC(C)(O)CNC(=O)c1nc(CC2CCCCC2)c(-c2ccc(S(=O)(=O)NC(C)(C)C)c3ccccc23)o1 [100/7] | 6.6/7.7/7.9 | 6.6/7.7/7.9 | 6.6/7.7/7.9 |  |  |  |  | 
9 | CC(C)(C)c1cc(-c2sc(S(=O)(=O)NC(=O)OCc3ccccc3)nc2CC2CCCCC2)cc(C2(C)CC2)c1 [Example 12, Benzyl (5-(3-(tert-butyl)-5-(1-methylcyclopropyl)phenyl)-4-(cyclohexylmethyl)thiazol-2-yl)sulfonylcarbamate] |  |  | 5.5 | > 20000 | > 20000 |  |  | 
10 | COC(c1nc(C(=O)NC2CCOCC2)sc1-c1cc(C(C)(C)C)cc(C2(C)CC2)c1)C1CCCCC1 (centres unmarked) [19/3] | 6.8/7.1/7.1 | 6.8/7.1/7.1 | 6.8/7.1/7.1 |  |  |  |  | 
11 | CC(C)(C)c1cc(-c2nc(C(N)=O)oc2CC2CCCCC2)cc(C(C)(C)C)c1 [Example 101, 5-(Cyclohexylmethyl)-4-(3,5-di-tert-butylphenyl)oxazole-2-carboxamide] |  |  | 6.0 | > 20000 | > 20000 |  |  | 
12 | CC(C)(C)NS(=O)(=O)c1ccc(-c2sc(S(N)(=O)=O)nc2CC2CCCCC2)c2ccccc12 [13/3] | 6.6/7.5/7.7 | 6.6/7.5/7.7 | 6.6/7.5/7.7 |  |  |  |  | 
13 | CC(C)(C)NS(=O)(=O)c1ccc(-c2sc(C(=O)NC3CCS(=O)(=O)CC3)nc2-c2ccccc2)c2ccccc12 [Example 300/1] | 7.2/7.8/7.9 | 7.2/7.8/7.9 | 7.2/7.8/7.9 |  |  |  |  | 
14 | CC(C)(C)NC(=O)c1cc(-c2sc(C(=O)N[C@H]3C[C@H](C(=O)O)C3)nc2CC2CCCCC2)cc(C(C)(C)C)c1 [9/7] | 6.2/7.4/7.5 | 6.2/7.4/7.5 | 6.2/7.4/7.5 |  |  |  |  | 
15 | CC(C)(O)CNC(=O)c1nc(CC2CCCCC2)c(-c2ccc(S(=O)(=O)NC(C)(C)C)c(C(F)F)c2F)s1 [6/18] | 7.0/8.5/8.7 | 7.0/8.5/8.7 | 7.0/8.5/8.7 |  |  |  |  | 
16 | CC(C)(C)c1cc(-c2sc(C(=O)N[C@H]3C[C@H](C(=O)O)C3)nc2CC2CCCCC2)cc(C(C)(C)O)n1 [8/10] |  |  |  | 158 | 158 | 631 |  | 
17 | COC(c1nc(C(=O)N[C@H]2C[C@H](C(=O)O)C2)sc1-c1ccc(S(=O)(=O)NC(C)(C)C)c(Cl)c1Cl)C1CCCCC1 (some centres unmarked) [19/4] | 6.0/7.3/7.2 | 6.0/7.3/7.2 | 6.0/7.3/7.2 |  |  |  |  | 
18 | CC(C)(O)CNC(=O)c1nc(CC2CCCCC2)c(-c2ccc(S(=O)(=O)NC(C)(C)C)c(Cl)c2OC(F)F)s1 [21/4] | 6.9/8.2/8.4 | 6.9/8.2/8.4 | 6.9/8.2/8.4 |  |  |  |  | 
19 | N#CC1(NS(=O)(=O)c2ccc(-c3sc(C(=O)N4CC5(CCS(=O)(=O)CC5)C4)nc3CC3CCCCC3)c3ccccc23)CC1 [Example 14, N-(1-Cyanocyclopropyl)-4-(4-(cyclohexylmethyl)-2-(7,7-dioxido-7-thia-2-azaspiro[3.5]nonane-2-carbonyl)thiazol-5-yl)naphthalene-1-sulfonamide] | 6.7/7.6/7.7 | 6.7/7.6/7.7 | 6.7/7.6/7.7 |  |  |  |  | 
20 | CC(C)(C)NS(=O)(=O)c1ccc(-c2sc(C(=O)N[C@H]3C[C@H](C(=O)O)C3)nc2CC2CCCCC2)cc1C(C)(C)O [7/17] | 6.5/8.0/8.0 | 6.5/8.0/8.0 | 6.5/8.0/8.0 |  |  |  |  | 
21 | CC(C)(O)CC(=O)Nc1nc(CC2CCCCC2)c(-c2ccc(S(=O)(=O)NC(C)(C)C)c(C(F)(F)F)c2)s1 [Example 200, N-(5-(4-(N-(tert-Butyl)sulfamoyl)-3-(trifluoromethyl)phenyl)-4-(cyclohexylmethyl)thiazol-2-yl)-3-hydroxy-3-methylbutanamide] | 6.6/7.5/7.8 | 6.6/7.5/7.8 | 6.6/7.5/7.8 |  |  |  |  | 
22 | CC(C)(C)NS(=O)(=O)c1ccc(-c2sc(C(=O)NC3CCC3)[n+]([O-])c2CC2CCCCC2)c2ccccc12 [Example 22/1] |  |  | 6.4 |  |  |  | 7.5 | 7.5
23 | CC(C)(C)c1cc(-c2sc(C(N)=O)nc2CC2CCCCC2)cc(C(C)(C)C)c1 [Example 5, 4-(Cyclohexylmethyl)-5-(3,5-di-tert-butylphenyl)thiazole-2-carboxamide] | 6.7/6.3/6.1 | 6.7/6.3/6.1 | 6.7/6.3/6.1 |  |  |  |  | 
24 | CC(C)(O)CNC(=O)c1nc(CC2CCC2)c(-c2ccc(S(=O)(=O)NC(C)(C)C)c(Cl)c2Cl)s1 [Example 21, 5-(4-(N-(tert-butyl)sulfamoyl)-2,3-dichlorophenyl)-4-(cyclobutylmethyl)-N-(2-hydroxy-2-methylpropyl)thiazole-2-carboxamide] | 7.0/8.1/8.2 | 7.0/8.1/8.2 | 7.0/8.1/8.2 |  |  |  |  | 
25 | CC(C)(C)NS(=O)(=O)c1ccc(-c2sc(C(=O)NCC3(C(=O)O)CCOCC3)nc2CC2CCCCC2)c(Cl)c1Cl [6/36] | 6.3/7.4/7.4 | 6.3/7.4/7.4 | 6.3/7.4/7.4 |  |  |  |  | 
26 | CC(C)(C)NS(=O)(=O)c1ccc(-c2sc(C(=O)NC3CSC3)nc2CC2CCCCC2)c2ccccc12 [6/14] | 6.8/8.7/8.7 | 6.8/8.7/8.7 | 6.8/8.7/8.7 |  |  |  |  | 
27 | CCC(C)(C)NS(=O)(=O)c1ccc(-c2sc(C(=O)NCC(C)(C)O)nc2C(=O)N2CCC(C)CC2)c2ccccc12 [304/13] | nt/7.6/7.7 | nt/7.6/7.7 |  |  |  |  |  | 
28 | CC(C)(C)NS(=O)(=O)c1ccc(-c2sc(C(=O)N[C@H]3C[C@H](C(=O)O)C3)nc2CC2CCC2)c(Cl)c1Cl [21/15] |  |  |  | 20 | 20 |  |  | 
29 | CC(C)(C)NS(=O)(=O)c1ccc(-c2sc(C(=O)N[C@H]3C[C@H](C(=O)O)C3)nc2CC2CCCCC2)c(OC(F)(F)F)c1 [21/7] |  |  |  | 10 | 6.31 |  |  | 
30 | CC(C)(C)NS(=O)(=O)c1ccc(-c2sc(C(=O)NC3CCS(=O)(=O)CC3)nc2Cc2cccnc2)c2ccccc12 [300/13] | nt/6.4/6.6 | nt/6.4/6.6 |  |  |  |  |  | 
